“Also recorded” adds a separate entry of the source.
Columns and labels:
phi3T = assay: Growth dynamics of phage-infected cultures (phi3T infection of B. subtilis 168); assay type: cell-based; conditions: B. subtilis 168 infected by phi3T at MOI=0.1, LB supplemented with synthesized peptide
Experimental: Specifically, overnight cultures of B. subtilis strain 168 were diluted 1:50 in LB media supplemented with 0.1 mM MnCl2 and 5 mM MgCl2, and incubated at 37° C. with shaking until reaching optical density (O.D) 600 nm=0.5. Phages (phi29, phi105, rho14 or phi3T) were added to the bacterial culture at MOI=1 and incubated for 3 hours. The media were centrifuged at 4000 rpm for 10 minutes at 4° C. and the supernatant was filtered with 0.2 μm filer (GE Healthcare Life Sciences, Whatman, CAT #10462200). Phages and large molecules were further filtered out from the media by using Amicon Ultra centrifugal filters at a cutoff of 3,000 NMWL (3 kDa) (Milipore, CAT #UFC900324). A plaque assay was performed in order to verify that no phages were left in the medium.
7.5 mg (per reaction) of Proteinase K-Agarose from Tritirachium album (Sigma, CAT #P9290) were washed twice with 750 μl of sterile water and then resuspended with 750 μl of LB supplemented with 0.1 mM MnCl2 and 5 mM MgCl2. Following, the tubes were centrifuged again and the supernatant was discarded. 1.5 ml of phi3T-derived conditioned medium or control medium was added to a tube containing the washed proteinase K. The media were incubated for 2 hours at 37° C. with the proteinase K. The media were centrifuged and the supernatants were collected for the infection assay.
(§1) Overnight cultures of bacteria were diluted 1:100 in LB media and incubated at 37° C. with shaking until reaching O.D 600 nm=0.1. The bacterial culture was centrifuged at 4000 rpm for 10 minutes at room temperature. The supernatant was discarded and the pellet was resuspended in LB medium supplemented with 0.1 mM MnCl2 and 5 mM MgCl2 at 10% of the initial volume. The concentrated bacterial culture was added to conditioned medium or medium supplemented with synthesized arbitrium peptide in a ratio of 1:9 (bacteria to medium) and incubated for 1 hour at room temperature. Following, the culture was infected with phages at MOI=0.1. Optical density measurements at a wavelength of 600 nm were taken using a TECAN Infinite 200 plate reader in a 96-wells plate.

spBeta = assay: Growth dynamics of phage-infected cultures (spBeta infection of B. subtilis BEST7003); assay type: cell-based; conditions: B. subtilis BEST7003 infected by spBeta at MOI=0.1, LB supplemented with synthesized peptide
Experimental: as §1

phi3T AimR receptor = biological target: T1, phi3T AimR receptor (Bacillus phage phi3T, UniProt P0DOE3); assay type: binding; conditions: AimR 200 nM, peptide 9-4000 nM
T1 construct: made in house; host or cells: E. coli BL21(DE3), pET28a
T1 sequence (P0DOE3 whole entry, looked up): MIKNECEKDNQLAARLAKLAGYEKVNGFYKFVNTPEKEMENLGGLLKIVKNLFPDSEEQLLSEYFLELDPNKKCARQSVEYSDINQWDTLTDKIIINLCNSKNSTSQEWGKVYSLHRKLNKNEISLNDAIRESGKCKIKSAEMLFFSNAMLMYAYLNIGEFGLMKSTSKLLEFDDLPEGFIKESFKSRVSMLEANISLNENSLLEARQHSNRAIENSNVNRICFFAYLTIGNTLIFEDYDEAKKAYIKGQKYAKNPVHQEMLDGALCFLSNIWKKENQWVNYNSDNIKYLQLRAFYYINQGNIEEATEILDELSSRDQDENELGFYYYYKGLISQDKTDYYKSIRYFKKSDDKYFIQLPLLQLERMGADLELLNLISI
Experimental: Two-step purified 6×His-tagged AimR stored in Tris/NaCl buffer (50 mM Tris pH 8.0, 150 mM NaCl, 2 mM TCEP) at −80° C. was thawed on ice and centrifuged at 21,000 g for 10 minutes at 4° C. prior to analysis. Peptides [SAIRGA (SEQ ID NO: 269) and GMPRGA (SEQ ID NO: 271)] were solubilized in 50 mM Tris-HCl pH 8.0, 150 mM NaCl to a final concentration of 100 μM. AimR was diluted to 200 nM and was incubated with 16 different peptide concentrations varying between 9-4000 nM, which were prepared in Tris/NaCl buffer containing 0.1% [v/v] Pluronic acid (NanoTemper). Roughly 3 μl were loaded into NT.LabelFree Zero-Background Premium Coated Capillaries (NanoTemper) and inserted into a Monolith NT.LabelFree device (NanoTemper). MST experiments were performed at 60% MST power (infra-red laser) and 20% LED power at 23° C. using the Monolith NT.LabelFree instrument (Nanotemper). Ratios between normalized initial fluorescence and post-temperature-jump and thermophoresis were calculated and averaged from 3 independent runs (runs were incubated for 20 minutes at room temperature before the measurement). A plot of fluorescence ratios versus peptide concentration was used to assess the binding capacity of the phage protein and its cognate peptide ligand.

AimR = biological target: T2, AimR (Bacillus phage phi3T, UniProt P0DOE3); assay: Analytical gel filtration of purified AimR (oligomeric state); conditions: AimR:SAIRGA 1:2, AimR:GMPRGA 1:1 molar ratio
T2 construct: made in house; host or cells: E. coli BL21(DE3), pET28a
T2 sequence (P0DOE3 whole entry, looked up): T1 sequence (P0DOE3 whole entry, looked up)
Experimental: Following, AimR was expressed in E. coli BL21(DE3) cells with a C-terminal 6× His-tag. Expression was performed at 15° C. for about ˜18 hours using 200 μM IPTG (Isopropyl β-D-1-thiogalactopyranoside) as an inducer. The cells pellet was resuspended in lysis buffer [50 mM Tris pH 8, 0.3M NaCl, 20 mM Imidazole, 2 mM DTT, 0.2 mg/ml Lysozyme, 1 μg/ml DNAse, protease inhibitor cocktail (Calbiochem)], disrupted by a cell disrupter at 4° C. and clarified at 15,000 g for 30 minutes. The clarified lysate was loaded onto a HisTrap_FF_5 ml column (GE Healthcare) and washed with buffer containing 50 mM Tris pH 8, 0.3 M NaCl, 20 mM imidazole and 2 mM DTT. AimR was eluted from the column in one step with the same buffer containing 0.5 M imidazole. Fractions containing AimR were pooled and injected to a size exclusion column (HiLoad_16/60_Superdex_200_prepgrade,GE_Healthcare) equilibrated with 20 mM Tris pH 8, 0.3 M NaCl, 2 mM TCEP. Fractions containing pure AimR were pooled and flash frozen in aliquots using liquid nitrogen.
Pure AimR was injected to an analytical gel filtration column (Superdex_200_Increase_10/30 GL, GE Healthcare) equilibrated with buffer containing 20 mM Tris pH 8, 0.3 M NaCl, 2 mM TCEP. […]

Substance	effect on the phage infection dynamics (culture lysis, growth curve) (phi3T)	effect on lysogeny / infection dynamics of spBeta (spBeta)	specific binding to the phi3T AimR receptor (MST) (phi3T AimR receptor)	AimR oligomeric state (migration in gel filtration column) (AimR)
AIRGA: shorter, 5 amino acids version of the SAIRGA peptide	neither observed; also recorded: do not guide lysogeny	–	–	–
GMPRGA: predicted mature AimP-derived arbitrium peptide of spBeta	did not affect the lysogeny profile of phi3T	promoted lysogeny of spBeta	did not show specific binding	did not lead to a change in the AimR oligomeric state
PhrC: a known quorum sensing peptide of B. subtilis (ERGMT)	neither observed	–	–	–
SAIRG: shorter, 5 amino acids version of the SAIRGA peptide	neither observed; also recorded: do not guide lysogeny	–	–	–

— patent publication US11542508B2, “Isolated polynucleotides and polypeptides and methods of using same for expressing an expression product of interest” (priority 2016, dated 2023)
